Data taken from patent US8362248B2, “Substituted pyridinyl and pyrimidinyl derivatives as modulators of metabolism and the treatment of disorders related thereto” (Arena Pharmaceuticals, Inc., priority 2005, dated 2013).
In brackets after ≈: the same amount, converted by molar mass. Where two headings read alike, the source gives them in different places.

Experiments:
[1] = Aqueous solubility; assay type: physicochemical; conditions: aqueous medium, aqueous buffer
[2] = Rat dose-range PK study (dose escalation pharmacokinetics); assay type: in vivo
Description: Animal, Compound Formulation, Dosing, and Blood Sample Collection: […]
Male SD rats (250-300 g) were purchased from Charles River Laboratory; upon reciept, animals were placed under light-dark cycle (6:30 am-6:30 pm lights on). They were allowed ad libitum access to water and 4 pieces of food daily (Purina Meals Rodent Diet, Product Number 5001).
Compound formulations were prepared as following: The IV injection formulation was prepared in 20% hydroxypropyl-beta-cyclodextrin with concentration of […]. The PO formulations were prepared in 0.5% hydroxypropyl methylcellulose with concentrations of […]. […]
Plasma samples were prepared as follows. […] Calibration standards were typically prepared in the range of 2.0 ng/mL to 10 μg/mL with linear regression for quantitation. […]
Results were calculated by noncompartmental analysis using WinNonlin Pro version 3.1 based on plasma concentration—time profiles for individual animals. Plasma levels were determined as described above and the oral and intravenous area under the concentration vs. time curve (AUC was calculated using the linear trapezoidal rule up to the last measurable concentration and was then extrapolated to infinity) were compared to determine the % bioavailability (% F) by the following formula: Dose (IV)*AUC (oral)/Dose (oral)*AUC (IV). […]

[3] = target: T1, RUP3 (Homo sapiens, UniProt Q8TDV5); test: RUP3 dose responses in melanophores (melanophore dispersion assay); assay type: cell-based
T1 construct: ID; No:2; expressed in transfected cells; host or cells: melanophores (cultured as per Potenza and Lerner 1992), electroporated
T1 sequence (Q8TDV5 with tags, fused parts or gaps): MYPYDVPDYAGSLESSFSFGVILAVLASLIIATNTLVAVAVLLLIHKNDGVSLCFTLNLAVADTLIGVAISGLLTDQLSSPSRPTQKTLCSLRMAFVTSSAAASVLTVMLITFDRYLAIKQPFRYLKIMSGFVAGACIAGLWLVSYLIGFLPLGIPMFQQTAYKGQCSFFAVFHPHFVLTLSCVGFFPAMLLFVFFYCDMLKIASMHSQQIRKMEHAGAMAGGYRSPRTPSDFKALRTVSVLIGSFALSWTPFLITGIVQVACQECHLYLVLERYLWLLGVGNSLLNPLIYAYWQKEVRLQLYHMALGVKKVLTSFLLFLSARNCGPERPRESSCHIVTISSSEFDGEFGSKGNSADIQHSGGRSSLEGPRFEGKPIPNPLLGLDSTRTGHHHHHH
Description: Melanophores are maintained in culture as reported by Potenza, M. N. and Lerner, M. R., in Pigment Cell Research, Vol. 5, 372-378, 1992 and transfected with the RUP3 expression vector (pCMV) using electroporation. Following electroporation, the transfected cells are plated into 96 well plates for the assay. The cells are then allowed to grow for 48 hours in order to both recover from the electroporation procedure and attain maximal receptor expression levels.
On the assay day, the growth medium on the cells is replaced with serum-free buffer containing 10 nM melatonin. The melatonin acts via an endogenous Gi-coupled GPCR in the melanophores to lower intracellular cAMP levels. In response to lowered cAMP levels, the melanophores translocate their pigment to the center of the cell. The net effect of this is a significant decrease in the absorbance reading of the cell monolayer in the well, measured at […].
After a 1-hour incubation in melatonin, the cells become completely pigment-aggregated. At this point a baseline absorbance reading is collected. Serial dilutions of test compounds are then added to the plate and compounds that stimulate RUP3 produce increases in intracellular cAMP levels. In response to these increased cAMP levels, the melanophores translocate their pigment back into the cell periphery. After one hour, stimulated cells are fully pigment-dispersed. The cell monolayer in the dispersed state absorbs much more light in the 600-650 nm range. The measured increase in absorbance compared to the baseline reading allows one to quantitate the degree of receptor stimulation and plot a dose-response curve.
The compounds in the above examples were screened using the melanophore dispersion assay, as described above.

[4] = tested on: Male C57b1/6J mice; test: Oral glucose tolerance test (oGTT) in mice; assay type: in vivo; conditions: for lowering of blood glucose in oGTT (in words): mice after challenge with glucose; for Mean % Inhibition of Glucose Excursion: oGTT, mice, p.o.
Description: A. Oral Glucose tolerance test (oGTT)
[…] Compounds were delivered orally via a gavage needle (p.o., volume 10 mL/Kg). At time 0, levels of blood glucose were assessed using a glucometer (Elite XL, Bayer), and mice were administered either vehicle (20% hydroxypropyl-beta-cyclodextrin) or test compound. Thirty minutes after administration of test compound, levels of blood glucose were again assessed, and mice were administered dextrose orally at a dose of 3 g/Kg. Blood glucose measurements were then taken 20 min, 40 min, 60 min and 120 min after this time.

[5] = melanophore dispersion assay, read-out: RUP3 (EC50)

Question: Which solubility ([1]; pH=2) does the source give for COc1c(OC2CCN(C(=O)OC(C)C)CC2)ccnc1Nc1ccc(S(C)(=O)=O)cc1F [Compound 77, 4-[2-(2-Fluoro-4-methanesulfonyl-phenylamino)-3-methoxy-pyridin-4-yloxy]-piperidine-1-carboxylic acid isopropyl ester] here?
Answer: 1120 µg/mL (≈ 2330 µM)

Question: What about the solubility ([1]; pH=5) of the same molecule?
Answer: 190 µg/mL (≈ 395 µM)

Question: Which results are given for COc1c(Nc2ccc(S(C)(=O)=O)nc2C)ncnc1OC1CCN(C(=O)OC(C)C)CC1 [Compound 84, 4-[6-(6-Methanesulfonyl-2-methyl-pyridin-3-ylamino)-5-methoxy-pyrimidin-4-yloxy]-piperidine-1-carboxylic acid isopropyl ester]?
Answer: dose escalation pharmacokinetics, AUC vs dose (in words) ([2]; FIG. 5): linear dose escalation pharmacokinetics; dose escalation pharmacokinetics, AUC vs dose (in words) ([2]; FIG. 5, listed as 4-[6-(6-Methanesulfonyl-2-methyl-pyridin-3-ylamino)-5-methoxy-pyrimidin-4-yloxy]): essentially linear dose escalation pharmacokinetics; EC50 [3]: 3.55 nM; agonist activity at the RUP3 receptor (in words) [3]: potent agonist; reduction in AUC (blood glucose, oGTT) ([4]; Experiment 1, 30 mpk): 38%; reduction in AUC (blood glucose, oGTT) ([4]; Experiment 2, 30 mpk): 84%; lowering of blood glucose in oGTT (in words) [4]: able to lower blood glucose

Question: With COc1cc(S(C)(=O)=O)ccc1Nc1ncnc(OC2CCN(C(=O)OC(C)C)CC2)c1OC [Compound 10, 4-[6-(4-Methanesulfonyl-2-methoxy-phenylamino)-5-methoxy-pyrimidin-4-yloxy]-piperidine-1-carboxylic acid isopropyl ester] as the molecule, how does the EC50 [3, 5] read?
Answer: 26 nM

Question: For COc1c(Oc2ccc(S(C)(=O)=O)cc2F)ncnc1OC1CCN(C(=O)OC(C)C)CC1 [Compound 76, 4-[6-(2-Fluoro-4-methanesulfonyl-phenoxy)-5-methoxy-pyrimidin-4-yloxy]-piperidine-1-carboxylic acid isopropyl ester], which EC50 [3, 5] is on record?
Answer: 2.51 nM

Question: Which results are given for COc1c(Nc2ccc(NCCO)nc2C)ncnc1OC1CCN(C(=O)OC(C)C)CC1 [Compound 78, 4-{6-[6-(2-Hydroxy-ethylamino)-2-methyl-pyridin-3-ylamino]-5-methoxy-pyrimidin-4-yloxy}-piperidine-1-carboxylic acid isopropyl ester]?
Answer: solubility ([1]; pH=2): 1450 µg/mL (≈ 3150 µM); solubility ([1]; pH=5): 380 µg/mL (≈ 825 µM)

Question: For COc1c(Nc2ccc(S(C)(=O)=O)cc2F)ncnc1OC1CCN(C(=O)OC(C)C)CC1 [Compound 24, 4-[6-(2-Fluoro-4-methanesulfonyl-phenylamino)-5-methoxy-pyrimidin-4-yloxy]-piperidine-1-carboxylic acid isopropyl ester], which EC50 [3, 5] is on record?
Answer: 0.49 nM

Question: Which results are given for CCOc1cc(F)c(Nc2ncnc(OC3CCN(C(=O)OC(C)C)CC3)c2OC)cc1F [Compound 75, 4-[6-(4-Ethoxy-2,5-difluoro-phenylamino)-5-methoxy-pyrimidin-4-yloxy]-piperidine-1-carboxylic acid isopropyl ester]?
Answer: lowering of blood glucose in oGTT (in words) [4]: lowered blood glucose in a dose-dependent manner; Mean % Inhibition of Glucose Excursion ([4]; dose 3 mg/Kg): 22%; Mean % Inhibition of Glucose Excursion ([4]; dose 10 mg/Kg): 34%
